Data published in patent US20060074243A1, “Hydroxamic acid and amide compounds and their use as protease inhibitors” (Pharmacia Corporation, priority 2002, published 2006).

What was measured:
Human recombinant MMP-2 = molecular target: T1, Human recombinant MMP-2 (Homo sapiens, UniProt P08253); experiment: In vitro MMP inhibition analysis (fluorogenic peptide substrate cleavage), Ki; format: biochemical
T1 construct: made in house; host or cells: MMP-2-transfected p2AHT2 cells
T1 sequence (P08253 110-660): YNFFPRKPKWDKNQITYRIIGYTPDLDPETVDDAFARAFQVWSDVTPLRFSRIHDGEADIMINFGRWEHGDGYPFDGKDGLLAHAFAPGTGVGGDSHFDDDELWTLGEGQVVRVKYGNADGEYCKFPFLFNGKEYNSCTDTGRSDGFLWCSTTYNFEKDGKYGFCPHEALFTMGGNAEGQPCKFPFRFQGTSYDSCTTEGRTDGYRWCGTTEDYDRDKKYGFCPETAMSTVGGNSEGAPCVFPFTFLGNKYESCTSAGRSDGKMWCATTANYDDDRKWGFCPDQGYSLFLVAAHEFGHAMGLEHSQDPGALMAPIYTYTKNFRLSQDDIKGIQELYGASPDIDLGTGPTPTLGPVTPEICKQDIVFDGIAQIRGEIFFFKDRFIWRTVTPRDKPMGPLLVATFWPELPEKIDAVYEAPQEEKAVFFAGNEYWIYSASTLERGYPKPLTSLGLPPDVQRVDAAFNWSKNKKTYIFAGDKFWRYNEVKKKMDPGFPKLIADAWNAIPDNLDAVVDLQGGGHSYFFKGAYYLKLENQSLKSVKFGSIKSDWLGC
Procedure: (§1) Several compounds and salts were analyzed in an in vitro assay to determine their ability to inhibit the MMP cleavage of peptide substrates. Inhibition constant (Ki) were calculated from the assayed compound-MMP interactions.
(§2) Human recombinant MMP-1, MMP-2, MMP-9, MMP-13, and MMP-14 were used in this assay. All enzymes were prepared in Assignee's laboratories following usual laboratory procedures. Protocols for the preparation and use of these enzymes are available in the scientific literature. See, e.g., Enzyme Nomenclature (Academic Press, San Diego, Calif., 1992) (and the citations therein). See also, Frije et al., J. Biol. Chem., 26(24), 16766-73 (1994).
The MMP-2 proenzyme was purified by gelatin Sepharose chromatography from MMP-2-transfected p2AHT2 cells provided by Dr. Gregory Goldberg of Washington University (St. Louis, Mo.).
(§3) All MMPs were activated using 4-aminophenylmercuric acetate (“APMA”, Sigma Chemical, St. Louis, Mo.) or trypsin. MMP-9 also was activated using human recombinant MMP-3 (purified in Assignee's laboratory following standard cloning and purification techniques).
(§4) The following fluorogenic, methoxycoumarin-containing polypeptide substrate (I) was used in the MMP inhibition assays: MCA-ArgProLeuGlyLeuDpaAlaArgGluArgNH2 (I) “MCA” is 7-methoxycoumarin-4-yl acetyl. Substrate (I) was prepared Assignee's laboratory. In the absence of MMP inhibitory activity, the substrate is cleaved at the Gly-Leu peptide bond. This cleavage separates the highly fluorogenic peptide from the 2,4-dinitrophenyl quencher, thus resulting in increase of fluorescent intensity.
(§5) The stock solutions of the assayed compounds and salts were prepared in […] (DMSO). These stock solutions were diluted in Buffer A (100 mM Tris-HCl, 100 mM NaCl, 10 mM CaCl2, 0.05% polyoxyethylene 23 lauryl ether, pH 7.5) to obtain solutions with different compound concentrations, i.e., assay solutions with different concentrations of the assayed […] compound. The experiment controls contained the same amount of Buffer A/DMSO as the assayed sample, but contained none of the tested compound or salt.
(§6) The assays from which the Ki determinations were made were performed as follows. The assayed compound samples were incubated in separate wells of untreated white polystyrene plates (Nunc Nalgene International, Rochester, N.Y.), and analyzed on a Tecan SpectraFlour Plus plate reader. The excitation wavelength was 330 nm, and the emission wavelength—420 nm. All samples (assayed compounds and controls) were incubated in separate plate wells at room temperature for 1 hr in the presence of 4 μM of MMP substrate (I). In the absence of MMP inhibitory activity, substrate (I) was cleaved at the Gly-Leu bond resulting in an increase of relative fluorescence. Inhibition was observed as a reduced rate of this increase in relative fluorescence. […] This protocol is a modification of method by Knight et al., FEBS Lett., 296(3), 263-266 (1992). Apparent inhibitory constants were determined by non-linear regression of reaction velocity as a function of inhibitor and enzyme concentration using Morrison's equation, as described by Kuzmic, Anal. Biochem. 286, 45-50 (2000). Modifications were made in the non-linear regression method to allow a common control reaction rate and effective enzyme concentration to be shared between all dose-response relationships on a given assay plate. Since the substrate concentration was chosen to be at or below the Km, the apparent Ki's from this analysis were reported as Ki's without correction for the influence of substrate.
The above protocols were used to determine Ki constants for the compounds in Examples 2-35 above. All Ki values in Table 1 are given in nM units.

Human recombinant MMP-13 = molecular target: T2, Human recombinant MMP-13 (Homo sapiens, UniProt P45452); experiment: as above; format: biochemical
T2 construct: made in house; host or cells: baculovirus / insect cells
Procedure: as §1, §2
The MMP-13 was obtained as a proenzyme from a full-length cDNA clone using baculovirus, as described by V. A. Luckow, “Insect Cell Expression Technology,” Protein Engineering: Principles and Practice, pp. 183-218 (edited by J. L. Cleland et al., Wiley-Liss, Inc., 1996). The expressed proenzyme was first purified over a heparin agarose column, and then over a chelating zinc chloride column. The proenzyme was then activated by APMA for use in the assay. Further details on baculovirus expression systems may be found in, for example, Luckow et al., J. Virol., 67, 4566-79 (1993). See also, O'Reilly et al, Baculovirus Expression Vectors: A Laboratory Manual (W.H. Freeman and Co., New York, N.Y., 1992). See also, King et al., The Baculovirus Expression System: A Laboratory Guide (Chapman & Hall, London, England, 1992).
as §3, §4, §5
as §6, with “Modifications were made in the non-linear regression method to allow a common control reaction rate and effective enzyme concentration to be shared between all dose-response relationships on a given assay plate. Since the substrate concentration was chosen to be at or below the Km, the apparent Ki's from this analysis were reported as Ki's without correction for the influence of substrate.” left out

## O=C(NO)C1(S(=O)(=O)c2ccc(-c3cnc(N4CCCCC4)cn3)cc2)CCOCC1 [Example 131]
Human recombinant MMP-2; Table 2
  Ki: 0.89 nM
Human recombinant MMP-13; Table 2
  Ki: 2.04 nM

## O=C(NO)C1(S(=O)(=O)c2ccc(-c3cnc(NCC4CC4)cn3)cc2)CCOCC1 [Example 128]
Human recombinant MMP-2; Table 2
  Ki: 5.08 nM
Human recombinant MMP-13; Table 2
  Ki: 3.4 nM

## O=C(NO)C1(S(=O)(=O)c2ccc(-c3ccc(CCC(F)(F)F)cc3)cc2)CCOCC1 [Example 161]
Human recombinant MMP-2; Table 2
  Ki: 0.15 nM
Human recombinant MMP-13; Table 2
  Ki: 0.07 nM

## CCN1CCC(C(=O)NO)(S(=O)(=O)c2ccc(-c3noc(-c4ccc(F)cc4)n3)cc2)CC1 [Example 147]
Human recombinant MMP-2; Table 2
  Ki: 1.75 nM
Human recombinant MMP-13; Table 2
  Ki: 2.59 nM

## CCN1CCC(C(=O)NO)(S(=O)(=O)c2ccc(-c3ccc(Oc4ccccc4)cc3)cc2)CC1 [Example 135]
Human recombinant MMP-2; Table 2
  Ki: 4.22 nM
Human recombinant MMP-13; Table 2
  Ki: 0.742 nM

## COCCN1CCC(C(=O)NO)(S(=O)(=O)c2ccc(-c3ccc(CCCC(F)(F)F)cn3)cc2)CC1 [Example 54]
Human recombinant MMP-2; Table 1
  Ki: 0.12 nM
Human recombinant MMP-13; Table 1
  Ki: 0.3 nM

## COCCN1CCC(C(=O)NO)(S(=O)(=O)c2ccc(-c3ccc(CCCC(F)(F)F)cc3)cc2)CC1 [Example 43]
Human recombinant MMP-2; Table 1
  Ki: 0.29 nM
Human recombinant MMP-13; Table 1
  Ki: 0.06 nM

## O=C(NO)C1(S(=O)(=O)c2ccc(-c3ccc(OC(F)(F)C(F)F)cc3)cc2)CCN(CCl)CC1 [Example 38]
Human recombinant MMP-2; Table 1
  Ki: 0.037 nM
Human recombinant MMP-13; Table 1
  Ki: 0.02 nM

## O=C(NO)C1(S(=O)(=O)c2ccc(-c3ccc(OC(F)(F)C(F)F)cc3)cc2)CCN(C2CC2)CC1 [Example 40]
Human recombinant MMP-2; Table 1
  Ki: 0.074 nM
Human recombinant MMP-13; Table 1
  Ki: 0.066 nM

## CC(=O)Nc1cnc(-c2ccc(S(=O)(=O)C3(C(=O)NO)CCOCC3)cc2)cn1 [Example 76]
Human recombinant MMP-2; Table 2
  Ki: 10.3 nM
Human recombinant MMP-13; Table 2
  Ki: 31.7 nM

## COCCC(C(=O)NO)S(=O)(=O)c1ccc(-c2ccc(CCCC(F)(F)F)cc2)cc1 (stereo not drawn) [Example 47]
Human recombinant MMP-2; Table 1
  Ki: 1.17 nM
Human recombinant MMP-13; Table 1
  Ki: 0.4 nM

## CCN1CCC(C(=O)NO)(S(=O)(=O)c2ccc(-c3ccc(-c4csc(C)n4)cc3)cc2)CC1 [Example 155]
Human recombinant MMP-2; Table 2
  Ki: 0.66 nM
Human recombinant MMP-13; Table 2
  Ki: 0.17 nM
